Results published in patent publication US7323454B2, “Etonogestrel esters” (N.V. Organon, priority 2002, dated 2008).

Assay: Pharmacokinetics of etonogestrel esters in the rabbit after one i.m. injection; plasma etonogestrel by LC-MSMS
Type: in vivo
Procedure: For the determination of the pharmacokinetic profile of the different etonogestrel-esters after parenteral application, i.m. application in the castrated rabbit model was chosen instead of s.c. Briefly, rabbits were injected once (day 1) with indicated etonogestrel-esters at 20 mg/kg in arachis oil (with a concentration of 40 mg/ml). At day 1, 2, 3, 4, 5, 6, 7, 8, 10, 12, 14, 21, 28, 35, 49, 63, 77, 92, 106, 120 and 133 blood was collected from the ear arteria, in EDTA-containing tubes. EDTA plasma was prepared (1500 g, 15 min) and stored at −20° C. With LC-MSMS the amount of parent compound (etonogestrel) was determined in these samples. The lower limit of this new assay is 0.5 nmol/l, from 0-250 nmol/l a linear curve was obtained with a correlation coefficient of 0,9998.

[1] = one i.m. injection, 20 mg/kg in arachis oil
[2] = one i.m. injection, 20 mg/kg in arachis oil, parent etonogestrel measured

Row | Compound | initial peak level of etonogestrel in plasma [2] [nmol/L] | time of initial peak level of etonogestrel [1] | further results
1 | C#C[C@]1(OC(=O)CCCCCCCC)CC[C@H]2[C@@H]3CCC4=CC(=O)CC[C@@H]4[C@H]3C(=C)C[C@@]21CC [Etonogestrel nonanoate] |  |  | duration with serum levels of etonogestrel above 1 nmol/l (in words) [1]: extended duration; initial peak levels of etonogestrel (in words) [1]: lower peak levels
2 | C#C[C@]1(OC(=O)CCCCCC)CC[C@H]2[C@@H]3CCC4=CC(=O)CC[C@@H]4[C@H]3C(=C)C[C@@]21CC [Etonogestrel-heptanoate] | 120 |  | 
3 | C#CC1(OC(=O)CCCCCCCCC)CCC2C3CCC4=CC(=O)CCC4C3C(=C)CC21CC (stereo not shown) [etonogestrel decanoate] | 24 | 5 days | 
4 | C#C[C@]1(OC(=O)CCCCCCCCCCC)CC[C@H]2[C@@H]3CCC4=CC(=O)CC[C@@H]4[C@H]3C(=C)C[C@@]21CC [etonogestrel dodecanoate] | 9 | 8 days | 
5 | C#C[C@]1(OC(=O)CCCCCCCCCCCC)CC[C@H]2[C@@H]3CCC4=CC(=O)CC[C@@H]4[C@H]3C(=C)C[C@@]21CC [etonogestrel tridecanoate] |  |  | initial peak levels of etonogestrel (in words) [1]: no initial levels of etonogestrel were observed
6 | C#C[C@]1(OC(=O)CCCCCCCCCC)CC[C@H]2[C@@H]3CCC4=CC(=O)CC[C@@H]4[C@H]3C(=C)C[C@@]21CC [etonogestrel undecanoate] | 13 | eight | duration of action (etonogestrel level above 1 nmol/l) [1]: more than 92 days
7 | C#C[C@]1(O)CC[C@H]2[C@@H]3CCC4=CC(=O)CC[C@@H]4[C@H]3C(=C)C[C@@]21CC [etonogestrel, (17α)-13-ethyl-17-hydroxy-11-methylene-18,19-dinorpregn-4-en-20-yn-3-one] |  |  | initial peak level of etonogestrel in plasma (in vivo, 20 mg/kg): 200 nmol/L; time in which etonogestrel levels declined to below 1 nmol/l (in vivo, 20 mg/kg): 28 days
